Measurements reported in US11498896B2 (The Broad Institute, Inc., priority 2014, dated 2022).

Key:
[1] = biological target: D2 receptor (Homo sapiens (Human), UniProt P14416); test: D2 radioligand binding assay
[2] = biological target: T1, human D2R/β-arrestin (Homo sapiens (Human), UniProt P14416); test: cell-based; conditions: β-arrestin Antagonist, CHO-K1 cells expressing human D2R/β-arrestin; antagonist mode, quinpirole 130 nM
Procedure: Cells were prepared for assays by growing cultures for up to 2 weeks (from about 6-20 passages). A vial of frozen cells was thawed in a water bath held at 37° C. The cells were then transferred into a 50 ml tube with 10 ml growth media. The vial was rinsed with growth media and the contents transferred to the 50 ml tube. The 50 ml tube was centrifuged at 1200 rpm for 5 minutes at room temperature. […] When the cells reached about 90% confluence (approximately 3 days between passages), the cells were passaged and used for either the agonist or antagonist assays as described below.
The cells were prepared for β-arrestin assays as described above. The assays were performed using a PathHunter® β-Arrestin Detecting Kit (DiscoveRX). The cells were grown on 225 mm dishes, then washed once with 1×PBS (Cellgro), followed by digestion with 2.5 ml 1× Detachment reagent (DRX 92-0009) for approximately 2 minutes.

[3] = biological target: T1, human D2R/β-arrestin; test: Gi/cAMP agonist assay (Lance Ultra cAMP, forskolin); assay type: cell-based; conditions: CHO-K1 cells expressing human D2R/β-arrestin; agonist mode, 2.5 μM forskolin
Procedure: Eu-cAMP tracer solution (10 μl, PerkinElmer, 360 μl of Tracer in 17.64 ml kit buffer) and ULight-anti-cAMP solution (10 μl, 120 μL antibody in 17.88 ml kit buffer) was then added to each well.

[4] = biological target: T1, human D2R/β-arrestin; test: β-arrestin agonist assay (PathHunter); assay type: cell-based; conditions: CHO-K1 cells expressing human D2R/β-arrestin; agonist mode
Procedure: The detection reagent (9.6 μL, Buffer:Emerald II:Galactor-Star in a 19:5:1 ratio, i.e., 14.06 mL:3.7 mL:0.74 mL=18.5 mL) was then added to the agonist plates.

[5] = biological target: T1, human D2R/β-arrestin; test: cell-based; conditions: cAMP Antagonist, CHO-K1 cells expressing human D2R/β-arrestin; antagonist mode, 2.5 μM forskolin and 2.7 nM quinpirole

T1 sequence (P14416 whole entry): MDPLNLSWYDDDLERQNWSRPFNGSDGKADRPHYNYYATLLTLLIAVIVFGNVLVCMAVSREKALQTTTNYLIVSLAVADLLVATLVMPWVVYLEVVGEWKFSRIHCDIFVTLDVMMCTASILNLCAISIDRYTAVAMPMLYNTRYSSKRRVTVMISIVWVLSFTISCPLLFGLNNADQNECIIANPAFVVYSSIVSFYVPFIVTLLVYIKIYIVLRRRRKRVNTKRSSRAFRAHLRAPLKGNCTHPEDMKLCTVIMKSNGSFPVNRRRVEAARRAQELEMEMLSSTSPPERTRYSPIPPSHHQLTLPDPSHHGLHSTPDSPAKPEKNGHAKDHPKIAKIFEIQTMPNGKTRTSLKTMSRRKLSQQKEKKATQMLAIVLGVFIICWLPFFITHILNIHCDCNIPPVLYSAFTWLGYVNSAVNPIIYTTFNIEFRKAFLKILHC
D2 receptor, sequence (P14416 whole entry): as above

Structure (SMILES) | Ki [1] | IC50 [2] | EC50 [3] | EC50 [4] | IC50 [5]
CNC(=O)C1(C)CCN(CC2COc3ccccc3O2)CC1 (single isomer, unassigned) [Compound 202b, 1-((2,3-dihydrobenzo[b][1,4]dioxin-2-yl)methyl)-N,4-dimethylpiperidine-4-carboxamide] | 1 to 10 µM | 0.1 to 1 µM | 0.1 to 1 µM | > 30 µM | 0.1 to 1 µM
CC1(Oc2ccccc2)CCN(CCOc2cccc(C(F)(F)F)c2)CC1 [Example 67, 4-methyl-4-phenoxy-1-(2-(3-(trifluoromethyl)phenoxy)ethyl)piperidine] | – | 0.1 to 1 µM | < 0.1 µM | > 30 µM | > 30 µM
Cc1ccccc1OCCN1CCC(C)(Oc2ccccc2)CC1 [Example 69, 4-methyl-4-phenoxy-1-(2-(o-tolyloxy)ethyl)piperidine] | – | 0.1 to 1 µM | < 0.1 µM | < 0.1 µM | > 30 µM
CCc1ccccc1OCCN1CCC(C)(Oc2ccccc2)CC1 [Example 70, 1-(2-(2-Ethylphenoxy)ethyl)-4-methyl-4-phenoxypiperidine] | – | 0.1 to 1 µM | < 0.1 µM | > 30 µM | 10 to 30 µM
CC(C)c1ccccc1OCCN1CCC(C)(Oc2ccccc2)CC1 [Example 71, 1-(2-(2-isopropylphenoxy)ethyl)-4-methyl-4-phenoxypiperidine] | – | 0.1 to 1 µM | > 30 µM | > 30 µM | 0.1 to 1 µM
COc1ccccc1OCCN1CCC(C)(Oc2ccccc2)CC1 [Example 72, 1-(2-(2-Methoxyphenoxy)ethyl)-4-methyl-4-phenoxypiperidine] | – | 0.1 to 1 µM | < 0.1 µM | > 30 µM | < 0.1 µM
CC1(Oc2ccccc2)CCN(CCOc2ccc(F)cc2C(F)(F)F)CC1 [Example 75, 1-(2-(4-Fluoro-2-(trifluoromethyl)phenoxy)ethyl)-4-methyl-4-phenoxy piperidine] | – | 0.1 to 1 µM | > 30 µM | > 30 µM | 0.1 to 1 µM
CC1(Oc2ccccc2)CCN(CCOc2cc(F)ccc2C(F)(F)F)CC1 [Example 76, 1-(2-(5-fluoro-2-(trifluoromethyl)phenoxy)ethyl)-4-methyl-4-phenoxypiperidine] | – | 0.1 to 1 µM | < 0.1 µM | > 30 µM | > 30 µM
CC1(Oc2ccccc2)CCN(CCn2cccc(C(F)(F)F)c2=O)CC1 [Example 77, 1-(2-(4-methyl-4-phenoxypiperidin-1-yl)ethyl)-3-(trifluoromethyl)pyridin-2(1H)-one] | – | > 30 µM | 10 to 30 µM | > 30 µM | > 30 µM
CC1(Oc2ccccc2)CCN(C(C)(C)COc2ccccc2C(F)(F)F)CC1 [Example 80, 4-methyl-1-(2-methyl-1-(2-(trifluoromethyl)phenoxy)propan-2-yl)-4-phenoxypiperidine] | – | 1 to 10 µM | 10 to 30 µM | > 30 µM | 1 to 10 µM
CC(CO)N1CCC(C)(Oc2ccccc2)CC1 (stereo not drawn) [Example 81, 2-(4-Methyl-4-phenoxypiperidin-1-yl)propan-1-ol] | – | 10 to 30 µM | 1 to 10 µM | > 30 µM | > 30 µM
CC1CC(C)(Oc2ccccc2)CC(C)N1CCOc1ccccc1C(F)(F)F (stereo not drawn) [Example 83, 2,4,6-Trimethyl-4-phenoxy-1-(2-(2-(trifluoromethyl)phenoxy)ethyl) piperidine] | – | 1 to 10 µM | > 30 µM | > 30 µM | 0.1 to 1 µM
COc1ccccc1OC1(C)CCN(CCOc2ccccc2)C1 (stereo not drawn) [Example 84, 3-(2-Methoxyphenoxy)-3-methyl-1-(2-phenoxyethyl)pyrrolidine] | – | 1 to 10 µM | 1 to 10 µM | > 30 µM | > 30 µM
Cc1ccccc1OC1(C)CCN(CCOc2ccccc2)C1 (stereo not drawn) [Example 85, 3-Methyl-1-(2-phenoxyethyl)-3-(o-tolyloxy)pyrrolidine] | – | 1 to 10 µM | < 0.1 µM | > 30 µM | > 30 µM
CC1(Oc2ccccc2)CCN(CCOc2ccccc2F)CC1 [Example 87, 1-(2-(2-fluorophenoxy)ethyl)-4-methyl-4-phenoxypiperidine] | – | > 30 µM | < 0.1 µM | < 0.1 µM | > 30 µM
CC1(Oc2ccc(Cl)cc2)CCN(CCOc2ccccc2Cl)CC1 [Example 88, 4-(4-chlorophenoxy)-1-(2-(2-chlorophenoxy)ethyl)-4-methylpiperidine] | – | < 0.1 µM | < 0.1 µM | < 0.1 µM | > 30 µM

Structure (SMILES) | Ki [1] | IC50 [2] | EC50 [3] | EC50 [4] | IC50 [5]
CC1(Oc2ccccc2)CCN(CCOc2ccccc2Cl)CC1 [Example 89, 1-(2-(2-Chlorophenoxy)ethyl)-4-methyl-4-phenoxypiperidine] | – | < 0.1 µM | < 0.1 µM | < 0.1 µM | > 30 µM
CC1(Oc2ccc(Cl)cc2)CCN(CCOc2ccc3ncoc3c2)C1 (stereo not drawn) [Example 92, 6-(2-(3-(4-Chlorophenoxy)-3-methylpyrrolidin-1-yl)ethoxy)benzo[d]oxazole] | – | 1 to 10 µM | < 0.1 µM | > 30 µM | 0.1 to 1 µM
OC1(c2ccccc2)CCN(CCOc2ccccc2)C1 (stereo not drawn) [Example 93, 1-(2-Phenoxyethyl)-3-phenylpyrrolidin-3-ol] | – | 1 to 10 µM | 0.1 to 1 µM | > 30 µM | 0.1 to 1 µM
O=[N+]([O-])c1ccc(OC2(c3ccccc3)CCN(CCOc3ccccc3)C2)cc1 (stereo not drawn) [Example 94, 3-(4-nitrophenoxy)-1-(2-phenoxyethyl)-3-phenylpyrrolidine] | – | 1 to 10 µM | 0.1 to 1 µM | > 30 µM | 1 to 10 µM
CC1(Oc2ccc(Cl)cc2)CCCN(CCOc2ccccc2Cl)C1 (stereo not drawn) [Example 97, 3-(4-chlorophenoxy)-1-(2-(2-chlorophenoxy)ethyl)-3-methylpiperidine] | – | 0.1 to 1 µM | > 30 µM | > 30 µM | < 0.1 µM
CC1(Oc2ccc(Cl)cc2)CCCN(CCOc2ccccc2F)C1 (stereo not drawn) [Example 98, 3-(4-Chlorophenoxy)-1-(2-(2-fluorophenoxy)ethyl)-3-methylpiperidine] | – | 0.1 to 1 µM | > 30 µM | > 30 µM | < 0.1 µM
CC1(Oc2cccc(C(F)(F)F)c2)CCCN(CCOc2ccccc2)C1 (stereo not drawn) [Example 100, 3-methyl-1-(2-phenoxyethyl)-3-(3-(trifluoromethyl)phenoxy)piperidine] | – | 1 to 10 µM | > 30 µM | > 30 µM | 0.1 to 1 µM
FC(F)(F)c1ccccc1OCCN1CCC(=Cc2ccccc2)CC1 [Example 101, 4-benzylidene-1-(2-(2-(trifluoromethyl)phenoxy)ethyl)piperidine] | – | 1 to 10 µM | > 30 µM | > 30 µM | 1 to 10 µM
FC(F)(F)c1ccccc1OCCN1CCC2(CC1)CC2c1ccccc1 (stereo not drawn) [Example 102, 1-Phenyl-6-(2-(2-(trifluoromethyl)phenoxy)ethyl)-6-azaspiro[2.5]octane] | – | 1 to 10 µM | 0.1 to 1 µM | > 30 µM | 1 to 10 µM
OC(c1ccccc1)C1(O)CCN(CCOc2ccccc2C(F)(F)F)CC1 (stereo not drawn) [Example 103, 4-(Hydroxy(phenyl)methyl)-1-(2-(2-(trifluoromethyl)phenoxy)ethyl) piperidin-4-ol] | – | 0.1 to 1 µM | > 30 µM | > 30 µM | 0.1 to 1 µM
CC1(Oc2ccccc2Cl)CCN(CCOc2ccccc2C(F)(F)F)CC1 [Example 104, 4-(2-Chlorophenoxy)-4-methyl-1-(2-(2-(trifluoromethyl)phenoxy)ethyl) piperidine] | – | 0.1 to 1 µM | 10 to 30 µM | > 30 µM | 1 to 10 µM
CC1(Oc2ccccn2)CCN(CCOc2ccccc2C(F)(F)F)CC1 [Example 105, 2-((4-methyl-1-(2-(2-(trifluoromethyl)phenoxy)ethyl)piperidin-4-yl)oxy) pyridine] | – | 0.1 to 1 µM | < 0.1 µM | > 30 µM | < 0.1 µM
CC1(C(O)c2ccccc2)CCN(CCOc2ccccc2C(F)(F)F)CC1 (stereo not drawn) [Example 107, (4-methyl-1-(2-(2-(trifluoromethyl)phenoxy)ethyl)piperidin-4-yl)(phenyl)methanol] | – | 0.1 to 1 µM | < 0.1 µM | 10 to 30 µM | 0.1 to 1 µM
CC1(Oc2ccc(Cl)cc2)CCCN(C(C)(C)COc2ccccc2)C1 (stereo not drawn) [Example 108, 3-(4-Chlorophenoxy)-3-methyl-1-(2-methyl-1-phenoxypropan-2-yl)piperidine] | – | 10 to 30 µM | > 30 µM | > 30 µM | 1 to 10 µM
CC1(Oc2ccccc2)CCN(CCOc2ccccc2C#N)CC1 [Example 109, 2-(2-(4-methyl-4-phenoxypiperidin-1-yl)ethoxy)benzonitrile] | – | < 0.1 µM | < 0.1 µM | < 0.1 µM | > 30 µM
CN(C)c1ccccc1OCCN1CCC(C)(Oc2ccccc2)CC1 [Example 111, N,N-dimethyl-2-(2-(4-methyl-4-phenoxypiperidin-1-yl)ethoxy)aniline] | – | 1 to 10 µM | > 30 µM | > 30 µM | 0.1 to 1 µM
